# Earlier results as cited in patent US20220323393A1, “COMPOSITIONS AND METHODS FOR TREATING AND/OR PREVENTING CARDIOVASCULAR DISEASE” (AMARIN PHARMACEUTICALS IRELAND LIMITED, priority 2010, published 2022).
# Tested on: subjects with AAMI
# Details: 50 mg, Day 21 of repeated dosing
smiles,measurement,setting,value
CN[C@@H](C)C/C=C/c1cncc(OC(C)C)c1 [Ispronicline],Benefit to Power of Attention versus placebo,,61 ms
same,"Power of Attention, mean",SD=61.22,-32.54 ms
